Test results as given in ChEMBL document CHEMBL1201862, “PubChem BioAssay data set” (2004).
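Values below derive from 48-hour exposures of cells grown in 96-well plates, with endpoints linearly interpolated between the two concentrations bracketing the appropriate inhibition level. Abbreviation: GI50, concentration required for 50% inhibition of growth.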 Activity calls are given as the source filed them. Cut-off read from the data, not from the text of the source: active = GI50 up to about 1.1 µM and inactive = higher.

Assays:
Assay in all cases: growth of human tumour cells (NCI), 48 h
ACHN = tested on: ACHN
RPMI-8226 = tested on: RPMI-8226
EKVX = tested on: EKVX
M14 = tested on: M14
MOLT-4 = tested on: MOLT-4
SW-620 = tested on: SW-620
NCI-H23 = tested on: NCI-H23
CCRF-CEM = tested on: CCRF-CEM
COLO 205 = tested on: COLO 205
IGROV-1 = tested on: IGROV-1
NCI-H460 = tested on: NCI-H460
SF-295 = tested on: SF-295
NCI-H522 = tested on: NCI-H522
HCC 2998 = tested on: HCC 2998
UACC-62 = tested on: UACC-62
U-251 = tested on: U-251
HCT-116 = tested on: HCT-116
MDA-MB-435 = tested on: MDA-MB-435
MCF7 = tested on: MCF7

Measured: GI50

NC(=O)c1csc(C2OC(COP(=O)(O)CP(=O)(O)OCC3OC(n4cnc5c(N)ncnc54)C(O)C3O)C(O)C2O)n1 (stereo unspecified)
inactive: ACHN > 100 µM | RPMI-8226 > 100 µM | EKVX > 100 µM | M14 > 100 µM | MOLT-4 > 100 µM | SW-620 > 100 µM | NCI-H23 > 100 µM | CCRF-CEM > 100 µM | COLO 205 91.2 µM | IGROV-1 > 100 µM | NCI-H460 > 100 µM | SF-295 53.7 µM | NCI-H522 68.1 µM | HCC 2998 > 100 µM | UACC-62 > 100 µM | U-251 > 100 µM

[N-]=[N+]=Nc1c(Cc2ccccc2)c(=O)oc2ccccc12
inactive: ACHN 38.2 µM | RPMI-8226 33.2 µM | HCT-116 > 10 µM | M14 25.5 µM | MOLT-4 5.06 µM | MDA-MB-435 22.3 µM | SW-620 14.8 µM | NCI-H23 26.4 µM | CCRF-CEM 12.7 µM | COLO 205 36.9 µM | IGROV-1 21.5 µM | NCI-H460 18.1 µM | MCF7 32.6 µM | SF-295 33.4 µM | HCC 2998 26 µM | UACC-62 > 10 µM | U-251 24.4 µM

CCn1c(=O)nc2n(-c3ccccc3)c3ccccc3nc-2c1=O
inactive: ACHN 4.21 µM | RPMI-8226 21.8 µM | EKVX 43.7 µM | M14 13.9 µM | MOLT-4 17.3 µM | SW-620 14.4 µM | NCI-H23 25.4 µM | CCRF-CEM 21.1 µM | COLO 205 3.85 µM | IGROV-1 22.4 µM | NCI-H460 13.3 µM | SF-295 24.2 µM | NCI-H522 26.9 µM | HCC 2998 21 µM | UACC-62 12.7 µM | U-251 17.5 µM

CN(C)C1(N(C)C)Oc2c(c(=O)n(C)c(=O)n2C)C(c2ccccc2)C1(F)F (stereo unspecified)
inactive: ACHN > 100 µM | RPMI-8226 > 100 µM | HCT-116 > 100 µM | EKVX > 100 µM | M14 > 100 µM | MOLT-4 > 100 µM | MDA-MB-435 > 100 µM | SW-620 > 100 µM | NCI-H23 > 100 µM | CCRF-CEM > 100 µM | COLO 205 > 100 µM | NCI-H460 > 100 µM | MCF7 > 100 µM | SF-295 > 100 µM | HCC 2998 > 100 µM | UACC-62 > 100 µM | U-251 > 100 µM

O=c1[nH]c2cccccc-2c1-c1nc2ccccc2[nH]1
inactive: ACHN 14.1 µM | RPMI-8226 28.5 µM | HCT-116 19.8 µM | EKVX 40.8 µM | M14 44.3 µM | SW-620 69.5 µM | NCI-H23 31.3 µM | CCRF-CEM 25.5 µM | COLO 205 > 100 µM | IGROV-1 32.7 µM | NCI-H460 7.01 µM | SF-295 30.5 µM | NCI-H522 19.3 µM | HCC 2998 38.7 µM | UACC-62 17.9 µM | U-251 21.8 µM

COc1ccccc1C(N)c1ccccc1 (stereo unspecified)
inactive: ACHN > 100 µM | RPMI-8226 > 100 µM | HCT-116 > 100 µM | EKVX > 100 µM | M14 > 100 µM | MOLT-4 > 100 µM | SW-620 > 100 µM | NCI-H23 > 100 µM | CCRF-CEM > 100 µM | COLO 205 > 100 µM | IGROV-1 > 100 µM | NCI-H460 > 100 µM | SF-295 > 100 µM | NCI-H522 > 100 µM | HCC 2998 > 100 µM | UACC-62 > 100 µM | U-251 > 100 µM

Cc1ccc(NC(=O)CCC(=O)C2CC(=O)CC/C2=N\NC(=O)c2cc3ccccc3cc2O)cc1C (stereo unspecified)
inactive: ACHN 18.9 µM | RPMI-8226 25 µM | HCT-116 19.6 µM | EKVX 29 µM | M14 25.8 µM | MOLT-4 17.7 µM | SW-620 25.6 µM | NCI-H23 15.7 µM | CCRF-CEM 11.5 µM | COLO 205 16.9 µM | IGROV-1 15.5 µM | NCI-H460 25.2 µM | SF-295 32.1 µM | NCI-H522 16.6 µM | HCC 2998 18.7 µM | UACC-62 10.2 µM | U-251 40.1 µM

COc1ccc(Cc2nccc3cc(OC)c(OC)cc23)cc1
inactive: ACHN 43.3 µM | RPMI-8226 20.9 µM | HCT-116 57.4 µM | EKVX > 100 µM | M14 > 100 µM | MOLT-4 39.4 µM | SW-620 > 100 µM | NCI-H23 37.2 µM | CCRF-CEM 65.6 µM | COLO 205 > 100 µM | IGROV-1 95.1 µM | NCI-H460 90.6 µM | SF-295 32.4 µM | NCI-H522 37.8 µM | HCC 2998 > 100 µM | UACC-62 42.2 µM | U-251 > 100 µM

Oc1c2cc(Cl)cc1COCc1cc(Cl)cc(c1O)COCc1cc(Cl)cc(c1O)COC2
inactive: ACHN > 100 µM | RPMI-8226 > 100 µM | HCT-116 8.13 µM | EKVX 54 µM | M14 18.7 µM | MDA-MB-435 40.7 µM | SW-620 > 100 µM | NCI-H23 20.8 µM | CCRF-CEM 9.44 µM | COLO 205 89.5 µM | IGROV-1 17 µM | NCI-H460 22.9 µM | MCF7 74.3 µM | SF-295 > 100 µM | HCC 2998 > 100 µM | UACC-62 56.5 µM | U-251 29.4 µM

O=C(/C=C\c1ccccc1)N1CCc2ccccc2C1
inactive: ACHN 38.2 µM | RPMI-8226 23.5 µM | HCT-116 34.6 µM | EKVX 32.4 µM | M14 60.5 µM | MDA-MB-435 27.2 µM | SW-620 63.5 µM | NCI-H23 14.9 µM | CCRF-CEM 29 µM | COLO 205 20.6 µM | IGROV-1 73.8 µM | NCI-H460 60.3 µM | MCF7 49.7 µM | SF-295 34.9 µM | HCC 2998 > 100 µM | UACC-62 43.4 µM | U-251 80.7 µM

COC(=O)c1cc(C)n(NC(=O)OC(C)(C)C)c1C
inactive: ACHN > 100 µM | RPMI-8226 > 100 µM | HCT-116 > 100 µM | EKVX > 100 µM | M14 > 100 µM | MOLT-4 > 100 µM | SW-620 > 100 µM | NCI-H23 > 100 µM | CCRF-CEM > 100 µM | COLO 205 > 100 µM | IGROV-1 > 100 µM | NCI-H460 > 100 µM | SF-295 > 100 µM | NCI-H522 > 100 µM | HCC 2998 > 100 µM | UACC-62 > 100 µM | U-251 > 100 µM

CCCCCCCCCCCCCCCC[N+](C)(C)Cc1ccc(C[N+](C)(C)CCCCCCCCCCCCCCCC)cc1
inactive: ACHN 3.71 µM | RPMI-8226 2.63 µM | HCT-116 2.59 µM | EKVX 3 µM | M14 2.89 µM | MOLT-4 1.78 µM | SW-620 2.99 µM | NCI-H23 1.88 µM | CCRF-CEM 1.46 µM | COLO 205 2.7 µM | IGROV-1 2.43 µM | NCI-H460 2.51 µM | SF-295 1.74 µM | NCI-H522 2.58 µM | HCC 2998 3.72 µM | UACC-62 4.13 µM | U-251 1.96 µM
